# In US11338021B2, “Combination therapies” (ENZYMATICA AB, priority 2015, dated 2022):
# “Also recorded” adds a separate entry of the source.
# B1: cod trypsin: trypsin from Atlantic cod (Gadus morhua), a polypeptide having serine protease activity (protein, listed as Gadus morhua)
# chain: IVGGYECTKHSQAHQVSLNSGYHFCGGSLVSKDWVVSAAHCYKSVLRVRLGEHHIRVNEGTEQYISSSSVIRHPNYSSYNINNDIMLIKLTKPATLNQYVHAVALPTECAADATMCTVSGWGNTMSSVADGDKLQCLSLPILSHADCANSYPGMITQSMFCAGYLEGGKDSCQGDSGGPVVCNGVLQGVVSWGYGCAERDHPGVYAKVCVLSGWVRDTMANY
# Tests used:
# Type in all cases: cell-based
# [1] = system: biofilms using a combination of Streptococcus pneumonia and Streptococcus mitis; experiment: Dispersal of pre-grown model (super) biofilm in microtiter plate, crystal violet staining, absorbance at 492 nm; conditions: for biofilm disruption by antibiotic and cod trypsin combination compared with antibiotic alone: FIG. 1, Student's t test; for effect of antibiotic alone on biofilm formation: biofilms grown for 4 hours; for disruption of super biofilm by cod trypsins alone: FIGS. 4-6, compared with placebo, treated for 2 minutes
# Experimental: Effects of combination of cod trypsins with selected antibiotics on biofilm dispersal. […] Biofilms using a combination of Streptococcus pneumonia and Streptococcus mitis were grown in a microtiter plate and used as a model for biofilm. The biofilm was treated with an antibiotic or a combination of the antibiotics and cod trypsins. The biofilms were stained with crystal violet followed by dissolution with acetic acid. Biofilm formation was measured as absorbance at 492 nm, and normalized to untreated biofilm. […] P values above bars indicate significance of difference between the two treatments as evaluated by Student's t test.
# Effects of combination of cod trypsins with selected antibiotics on biofilm dispersal. […] Biofilms using a combination of Streptococcus pneumonia and Streptococcus mitis were grown in a microtiter plate and used as a model biofilm. The biofilm was treated with cod trypsins, an antibiotic, or a combination of the two. The biofilms were stained with crystal violet followed by dissolution with acetic acid. Biofilm formation was measured as absorbance at 492 nm, and normalized to untreated biofilm. […] P values above bars indicate significance of effects as evaluated by ANOVA analysis.
# Each column represents one type of treatment or treatment combination, with the rows representing decreasing concentrations from top to bottom. After treatment biofilms are stained with crystal violet, with a darker colour representing more remaining biofilm. […] The lowest row represents blanks, where the first six holes represent untreated biofilm and the next six represent no biofilm.
# Effects of cod trypsins on the super biofilm presented visually after biofilm staining with crystal violet. […] The super biofilm with a combination of Streptococcus pneumonia and Streptococcus mitis were grown in a microtiter plate. The biofilm was treated with cod trypsins or placebo for 2 minutes and the wells were stained to measure the presence (black wells) of biofilm or its absence (clear wells) after treatment.
# After treatment the biofilms were stained with crystal violet, with a darker colour representing more remaining biofilm.
# Effects of cod trypsins on the super biofilm as measured by spectrophotometry after crystal violet staining and dissolution in acetic acid. […] Biofilms using a combination of Streptococcus pneumonia and Streptococcus mitis were grown in a microtiter plate. The biofilm was treated with cod trypsins or placebo and the wells were stained with crystal violet followed by dissolution with acetic acid. Biofilm formation was measured as absorbance at 492 nm, and normalized to untreated biofilm. […] Data is presented as a bar-plot with the error bars indicating the standard error of the mean (SEM). Data for dilutions of placebo and cod trypsins treated bacterial biofilms are placed next to each other. The Log reduction of biofilm formation of Penzyme compared to that of placebo in the same dilution is above the bars, as is the level of significance indicated by asterisks (*), where * represents a P of <0.05, ** a P<0.01 and *** a P<0.001. Students T-test was used to calculate the significance.
# Log reduction of super biofilm by cod trypsins at different concentrations. […] Biofilms using a combination of Streptococcus pneumonia and Streptococcus mitis were grown in a microtiter plate. The biofilm was treated with cod trypsins or placebo and the wells were stained with crystal violet followed by dissolution with acetic acid. Biofilm formation was measured as absorbance at 492 nm, and the reduction compared to placebo treated biofilm on a logarithmic scale.
# Biofilms using a combination of Streptococcus pneumonia and Streptococcus mitis were grown in a microtiter plate. The biofilm was treated with an antibiotic or a combination of the antibiotics and cod trypsins. The biofilms were stained with crystal violet followed by dissolution with acetic acid.
# [2] = system: biofilm forming bacteria Streptococcus pneumonia and Streptococcus mitis; experiment: Pre-treatment of planktonic bacteria before biofilm formation (4 hours), crystal violet staining, absorbance at 492 nm; conditions: FIGS. 7-8, compared with placebo, biofilms grown 4 hours, normalized to untreated biofilm
# Experimental: Effects of cod trypsins pre-treatment on biofilm formation. […] Biofilms using a combination of Streptococcus pneumonia and Streptococcus mitis were grown in a microtiter plate after being briefly treated with cod trypsins or placebo. After allowing the biofilms to grow for 4 hours the wells were stained with crystal violet followed by dissolution with acetic acid. Biofilm formation was measured as absorbance at 492 nm, and normalized to untreated biofilm. […] Data is presented as a boxplot where the top of the rectangle indicates the third quartile, a horizontal line near the middle of the rectangle indicates the median, and the bottom of the rectangle indicates the first quartile. A vertical line extends from the top of the rectangle to indicate the maximum value, and another vertical line extends from the bottom of the rectangle to indicate the minimum value.
# Effects of cod trypsin pre-treatment on biofilm formation. […] Biofilms using a combination of Streptococcus pneumonia and Streptococcus mitis were grown in a microtiter plate after being treated with cod trypsins or placebo. After allowing the biofilms to grow for 4 hours the wells were stained with crystal violet followed by dissolution with acetic acid. Biofilm formation was measured as absorbance at 492 nm, and normalized to untreated biofilm. […] Statistical significance of the difference, as evaluated by Student's t test, is indicated by symbols above the boxes where n.s. is p >0.05, * is p<0.05, ** p<0.01, and *** p<0.001.
# After allowing the biofilms to grow for 4 hours the wells were stained with crystal violet followed by dissolution with acetic acid. Biofilm formation was measured as absorbance at 492 nm, and normalized to untreated biofilm. […] Cod trypsins prevent biofilm formation in a concentration dependent manner. […] Biofilm formation was measured as absorbance at 492 nm, and normalized to untreated biofilm. […] Statistical significance of the difference, as evaluated by Student's t test, is indicated by symbols above the boxes where n.s. is p >0.05, * is p<0.05, ** p<0.01, and *** p<0.001.
# [3] = system: bacteria; experiment: Lethality of cod trypsin to bacteria (statement, no method given)
# [4] = absorbance at 492 nm normalized to untreated biofilm
# [5] = FIG. 3, 96 well plate image, crystal violet
molecule,measurement,setting,value
CN[C@H](CC(C)C)C(=O)N[C@H]1C(=O)N[C@@H](CC(N)=O)C(=O)N[C@H]2C(=O)N[C@H]3C(=O)N[C@H](C(=O)N[C@H](C(=O)O)c4cc(O)cc(O)c4-c4cc3ccc4O)[C@H](O)c3ccc(c(Cl)c3)Oc3cc2cc(c3O[C@@H]2O[C@H](CO)[C@@H](O)[C@H](O)[C@H]2O[C@H]2C[C@](C)(N)[C@H](O)[C@H](C)O2)Oc2ccc(cc2Cl)[C@H]1O [vancomycin],biofilm disruption by antibiotic and cod trypsin combination compared with antibiotic alone,[1]; [4],not to have significantly increased efficacy against the model biofilm when combined with trypsin
same,effect of antibiotic in combination with cod trypsin on efficacy of cod trypsin,[1]; [5],can increase the efficacy of cod trypsin
same,effect of antibiotic alone on biofilm formation,[1]; [5],the drug alone appears to increase biofilm formation
same,effect of antibiotic alone on biofilm formation,"[1]; FIG. 3, 96 well plate image, crystal violet, listed as Vancomycin",may increase biofilm formation
CO/N=C(\C(=O)N[C@@H]1C(=O)N2C(C(=O)O)=C(COC(C)=O)CS[C@H]12)c1csc(N)n1 [cefotaxime],biofilm disruption by antibiotic and cod trypsin combination compared with antibiotic alone,[1]; [4],more effective in disrupting bacterial biofilm than antibiotics alone
same,biofilm disruption by combination of cod trypsin and antibiotic compared with either alone,"[1]; FIG. 2, absorbance at 492 nm normalized to untreated biofilm, ANOVA",more effective in disrupting bacterial biofilm than either cod trypsins or antibiotics alone
CC[C@H]1OC(=O)[C@H](C)[C@@H](O[C@H]2C[C@@](C)(OC)[C@@H](O)[C@H](C)O2)[C@H](C)[C@@H](O[C@@H]2O[C@H](C)C[C@H](N(C)C)[C@H]2O)[C@](C)(O)C[C@@H](C)C(=O)[C@H](C)[C@@H](O)[C@]1(C)O [erythromycin],biofilm disruption by antibiotic and cod trypsin combination compared with antibiotic alone,[1]; [4],more effective in disrupting bacterial biofilm than antibiotics alone
Cc1onc(-c2ccccc2)c1C(=O)N[C@@H]1C(=O)N2[C@@H]1SC(C)(C)[C@@H]2C(=O)O [oxacillin],biofilm disruption by antibiotic and cod trypsin combination compared with antibiotic alone,[1]; [4],more effective in disrupting bacterial biofilm than antibiotics alone
B1,prevention of biofilm formation by pre-treatment of bacteria,[2],can prevent the formation of biofilms in a concentration dependent manner
same,prevention of biofilm formation by pre-treatment of bacteria,[2]; listed as cod trypsin composition,very effective in preventing bacterial biofilm formation
same,prevention of biofilm formation by pre-treatment of bacteria,[2]; listed as cod trypsins,very effective in preventing bacterial biofilm formation
same,lethality to the bacteria,[3],not lethal to the bacteria
same,time in which cod trypsins disrupt bacterial biofilm,"[1]; FIG. 6, at concentrations 8 U/g or higher",less than 2 minutes
same,concentrations at which cod trypsins are very effective in disrupting bacterial biofilm,"[1]; FIG. 6, log reduction compared to placebo treated biofilm",≥ 8 U/g
same,disruption of super biofilm by cod trypsins alone,[1],effective at removing biofilms at the higher concentration
same,disruption of super biofilm by cod trypsins alone,[1]; listed as cod trypsins,very effective in disrupting the super biofilm; also recorded: very effective in disrupting bacterial biofilm; also recorded: disrupt the super biofilm in a concentration dependent manner; also recorded: quite capable of both removing bacteria from and partially prevent reattachment of bacteria to surfaces in a concentration dependent manner
